These results are taken from paper PMC8399913, “Development of Arteannuin B Sustained-Release Microspheres for Anti-Tumor Therapy by Integrated Experimental and Molecular Modeling Approaches” (Pharmaceutics, 2021).

Where two headings read alike, the source gives them in different places.

Data set [1] can be described thus: PK study in SD rats (AB plasma concentration by LC-MS). The data set is classed as in vivo, Sprague-Dawley rats. The conditions noted are these: 3.5 mg/kg; for Cmax / half-life: Sprague-Dawley, rat, plasma. On the procedure:
There were 9 SD rats equally separated into three groups. The first two groups were injected with AB at a dose of 3.5 mg/kg, through different injection routes, either subcutaneous or intramuscular injections. Collect whole blood from the jugular vein of each rat one day before administration and 0, 0.08, 0.16, 0.25, 0.5, 1, 2, 4, 6, and 24 h after administration. The third group was a subcutaneous injection of ABMs with a dose of 50 mg/kg. The whole blood was collected from the jugular vein of each rat one day before the administration and 0.08, 0.25, 0.5, 1, 2, 4, 6, 24, 72, 168, and 240 h after administration. A 1.0 mL disposable syringe was used, and the blood volume was 0.2 mL each time. The whole blood sample was placed in a centrifuge tube (1.5 mL, Xinkang Medical, Taizhou, Jiang Su, China) containing 2000 KIU aprotinin and EDTA-K2 anticoagulant. Turn the centrifuge tube upside down to mix the anticoagulant with the blood thoroughly. Before centrifugation, it should be stored in a pre-cooled CoolRack module (Rack M30, Corning, NY, USA) on wet ice and centrifuged within 15 min after collection. Centrifugation was performed at 4000 rpm, 15 min, 4 °C. After centrifugation, the plasma was separated, the supernatant transferred to the label sample tube (the transfer process needs to be operated on ice), and the sample was checked and stored in the −80 °C refrigerator until analysis.
LC-MS spectrometry (TQ XS, Waters, Milford, MA, USA) was used to detect the plasma concentration of AB. The electrospray ion source (ESI+) in positive ion mode has an ion source temperature of 150 °C, a solvent removal temperature of 500 °C, and a capillary voltage of 0.5 kV. Multiple reaction monitoring (MRM) mass spectrometry parameters are: AB, m/z 249.1→189.1, cone voltage 20 V, collision voltage 10 eV; aripiprazole-D8 (internal reference), m/z 456.3→293.2, the cone voltage is 20 V, and the collision voltage is 25 eV.
SD male rat plasma 50 μL and 200 μL of precipitant (0.1% formic acid in acetonitrile, containing 0.2 ng/mL aripiprazole-D8 as an internal reference) was added into a 96-well plate, and the plate was shaken at 750 rpm (Compact Digital MicroPlate Shaker, Thermo fisher, Waltham, MA, USA) for 10 min. Next, the sample was centrifuged (Legend Micro 21R, Thermo fisher, Waltham, MA, USA) at 4200 rpm for 25 min. After centrifugation, 60 μL of the supernatant was added to a 96-well plate, and then 140 μL of pure water was added, and the plate was shaken at 750 rpm for 5 min before the sample was injected for detection.
HPLC was equipped with a C18 column (Waters, BEH, 130 Å, 2.1 × 50 mm, 1.7 μm), and the mobile phase consisted of elution A (0.1% w/v citric acid in 5%w acetonitrile aqueous solution) and elution B (0.1% w/v citric acid in 95%w acetonitrile aqueous solution) at the ratio of 70:30 v/v. The flow rate was set at 1 mL/min, and the injection volume was 10 μL. The column temperature was set at 60 °C.

The subject of a further data set is A549 cells. The data set is described as follows: Anti-tumor cell proliferation activity (MTT method). The data set is classed as cell-based, human. The conditions noted are these: mean ± SD, n = 3. On the procedure:
The human non-small cell lung cancer (NSCLC) cell line (A549) was from American Type Culture Collection (ATCC, Manassas, VA, USA). RPMI-1640 medium and fetal calf serum (FBS) were from Gibco Life Technologies (Grand Island, NY, USA). A549 cells were inoculated in RPMI 1640 medium (containing 10% FBS) in a 37 °C, 5% CO2 cell incubator for culture and storage.
A549 cells were seeded into a 96-well plate at a concentration of 5 × 10^3 per well. AB and ABMs were prepared with DMSO and a specific solvent to make the final concentration per well was 6.25, 12.5, 25, 50, and 100 μM. Here, the dosage of AB in ABMs is calculated according to the actual cumulative release amount in the solution, which is calculated as 55% in 96 h. In the experiment, the control group consisted of cells treated with DMSO and a specific solvent of ABMs and cells without any treatment. The MTT method was used to measure the optical density (OD) values of the cells at 24, 48, 72, and 96 h after treatment. The inhibition rate (IR) of each group of samples on tumor cell growth was calculated according to the following equation:(6) IR(%)=OD(solvent)−OD(exp)/OD(solvent)×100% where OD(solvent) is the mean OD of the solvent group and OD(exp) is the mean OD of the experimental group.
A dose–response curve could be obtained with different concentrations of the samples on the tumor cell growth inhibition, from which the half-inhibition concentration (IC50) of the sample can be obtained. There are five replicate holes in each group, and the average value of the five holes was taken. Three parallel experiments were carried out for each sample, and the results were expressed as mean ± standard deviation (mean ± SD). According to the inhibition rate of each group, the IC50 of AB and ABMs at each time point was calculated by the statistical software IBM SPSS Statistics 20.

The test system of data set [2] is HT-29, HepG2, SGC-7901, A549, K562, B16-F10, and Du145 cells. Briefly: Preliminary experiments: tumor cell proliferation. Format: cell-based.
The test system of data set [3] is normal human embryonic liver cells L-02. Briefly: Preliminary experiments: toxicity to normal cells. Format: cell-based.
Data set [4] deals with mouse lung cancer metastasis models. Briefly: Preliminary experiments: mouse lung cancer metastasis models. The data set is classed as in vivo.
Data set [5] is described as follows: Tolerance of AB dissolved in Tween-80, ethanol and PEG-40. Format: in vivo.
The conditions of data set [6]: cited from earlier work.
On the set-up of data set [7]: method as in doi:10.1002/cjoc.19830010106. The conditions noted are these: cited from earlier work.
In a further data set the test system is A549 xenograft tumor. The data set is described as follows: In vivo anti-tumor activity, A549 xenograft tumor model. Details: species or system BALB/c nude mice. The conditions noted are these: 3 mg/kg once every 3 d; after four weeks. The method, then: A549 xenograft tumor model was obtained by subcutaneously injecting 1 × 10^6 cells (A549) into BALB/c nude mice. When the average size of the tumor reached about 100 mm^3, the tumor-bearing mice were randomly divided into 6 groups (6 mice in each group). The average size of tumors was calculated according to the equation 0.5 × a × b × b (a is the length, b is the width). The 700, 350, and 175 mg/kg dose groups of the ABMs were suspended in a specific solvent and then administered subcutaneously once a week, 4 times in total. […] The vehicle (microsphere without AB) group was given once a week for a total of 4 times. The model (saline) group was given once a day as a control. Meanwhile, a group of mice without any treatment (WT group) was selected as the standard group for comparison. The changes in food intake, water consumption, and mental state of the nude mice were observed and recorded every day after administration. The body weight and tumor size of the tumor-bearing mice were measured twice a week, and the relative tumor volume (RTV) of the nude mice was calculated by Equation (7). RTV = Vt/V0(7) where Vt is the tumor volume at each measurement and V0 is the tumor volume before administration. The relative tumor growth rate T/C (%) was calculated according to the following equation to evaluate the anti-tumor activity of each group. (8) T/C(%)=TRTV/CRTV×100%

As to `C=C1C(=O)O[C@@]23[C@H]1CC[C@@H](C)[C@@H]2CC[C@@]1(C)O[C@@H]31` [AB, Arteannuin B], the Cmax amounted to 74.5 ± 34.2 ng/mL in [1] (male SD rats, IM, mean ± SEM) and 236 ± 100 ng/mL in data set [1] (male SD rats, SC, mean ± SEM). For the same compound, the half-life is 2.3 h in data set [1] (male SD rats, IM, mean ± SEM, read-out: t1/2 (converted)); 1.15 h in [1] (male SD rats, SC, mean ± SEM, read-out: t1/2 (converted)); roughly 1 h in [1] (male, rats, read-out: elimination half-life (converted)). The AUClast amounted to 0.618 ± 0.131 ng·days/mL in [1] (male SD rats, IM, mean ± SEM) and 2.538 ± 0.842 ng·days/mL in [1] (male SD rats, SC, mean ± SEM). In addition, the “AUClast from subcutaneous injection relative to intramuscular injection” value in data set [1] (rats) was “about four times that of intramuscular injection”. The IC50 in the data set on A549 cells (96 h (day four)) was found to be 16.2 ± 4.78 µM; with A549 cells (Homo sapiens, A549, 24 h, 24 h), 211 ± 63.2 µM; in the data set with A549 cells (Homo sapiens, A549, 48 h, 48 h), 53.1 ± 22.5 µM; with A549 cells (Homo sapiens, A549, 72 h, 72 h) it was 27.5 ± 6.71 µM; with A549 cells (Homo sapiens, A549, 96 h, 96 h (day four)), 16 µM. In [2], the “proliferation of tumor cells” value is recorded as “inhibit the proliferation”. In data set [3], the “toxicity to normal cells” value was “no obvious toxicity”. Further, the therapeutic effect entry in data set [4] is “good therapeutic effect”. The tolerance after administration entry in [5] is given as “significant intolerance symptoms”. Besides, the elimination half-life result in data set [6] is recorded as “about 1 h”. In addition, the bioavailability in data set [6] (in animals) is reported as 19–35%. Also, in data set [7], the antimalarial activity entry was “no antimalarial activity”.
With `N.N.[Cl][Pt][Cl]` [DDP, Cis-platinum diamine-dichloride], the “tumor size (weight of dissected tumor)” value in the data set on A549 xenograft tumor was found to be 0.38 ± 0.04 g.
